Patent publication US20110104821A1, “ABeta-OLIGOMER MEASUREMENT METHOD” (priority 2008, published 2011)

Biological target: high molecular oligomer Aβ (Aβ1-42) (Homo sapiens, UniProt P05067)
Test: Influence of test compound on Aβ oligomer formation, measured by BAN50a / HRP-labeled BAN50a ELISA
Format: biochemical
Conditions: Curcumin with various concentrations added to Aβ42 solutions; incubated at 4° C. for a whole day and night; ELISA of Example 1
Procedure: ELISA using BAN50a and HRP labeled BAN50a (quantification of oligomer Aβ) was performed by the following steps.
(1) BAN50a antibody was dissolved in coating buffer A to a concentration of 10 μg/ml (75 μl/well), added to an EIA96 well plate (high maximum binding clear plate, Greiner), and incubated in a refrigerating room (about 4° C.) for a whole day and night. (2) After washing 3 times with PBS (calcium, magnesium-free; hereinafter sometimes to be abbreviated as PBS(−)), blocking buffer B was added to 100 μL/well and the plate was stored. (3) On the day of experiment, blocking buffer B was discarded and the plate was washed twice with PBS(−), and 25 μl of buffer C was added. […] (5) The sample was incubated in a refrigerating room (about 4° C.) for a whole day and night. (6) The plate was washed 4 times with PBS(−). […] (11) Thereafter, 1 M phosphoric acid solution (75 μl/well) was added to the reacted substrate solution to terminate the reaction, and OD450 was measured by a multi-label counter (PerkinElmer). […]
(3) The tube was incubated at 4° C. for a whole day and night. (4) The reaction mixture was diluted 100-fold with buffer C (mentioned above), and measured by the aforementioned ELISA. (5) The inhibitory rate was calculated with that of the vehicle group as 100%. […]

Sequence of high molecular oligomer Aβ (Aβ1-42) (P05067 672-713): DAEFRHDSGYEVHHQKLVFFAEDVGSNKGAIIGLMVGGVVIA

COc1cc(/C=C/C(=O)CC(=O)/C=C/c2ccc(O)c(OC)c2)ccc1O [curcumin]
signal of oligomer Aβ (inhibition of formation of high molecular oligomer Aβ): specifically decreased
